According to US20240310365A1, “DEVICE FOR EVALUATING INNER EAR DRUG DELIVERY” (North Carolina State University, priority 2023, published 2024):

Columns and labels:
[1] = humans; after intratympanic DSP 0.4-1.8 ml of 4 mg/ml; cited from earlier work
porcine RWM = test: Ex-vivo porcine RWM device permeability measurement; assay type: in vitro ADME; details: Dex ~400 μg/ml

C[C@@H]1C[C@H]2[C@@H]3CCC4=CC(=O)C=C[C@]4(C)[C@@]3(F)[C@@H](O)C[C@]2(C)[C@@]1(O)C(=O)CO [Dex, dexamethasone]
dexamethasone concentration in perilymph [1]: about 1.4 μg/ | time for passage through the porcine RWM (porcine RWM): < 0.5 h
